For series [1], the system named is U87MG cells. The series is described as follows: Cytotoxicity in U87MG cells (CellTiter-Glo), Embodiment 8. The class given is cell-based. The procedure:
Cytotoxicity Research of RNAh-Bio-670-Paclitaxel Nanoparticles in U87MG Cells
1) Cell Culturing and Plating
U87MG cells are cultured at 37 DEG C. and 5% CO2 in the EMEM basal medium in which 10% FBS and 1% PS are respectively added. The cell density used in the experiment is above 80%. The cells are collected, and centrifuged at 1000 rpm for 4 minutes, the medium is resuspended, the cell concentration is adjusted, and it is added to the 96-well plate in a volume of 5000 cells per 90 μL, and each group has 4 replicate wells.
2) Gradient Drug Concentration Preparation and Administration […]
Medium (untreated) control: only cells without compound treatment
Blank control: without cells, used for instrument zero calibration
3) Cell Culture after Administration
4) Cells Treated by Detection Kit
The well plate is brought to a room temperature in advance and stands for 30 minutes. 100 μL of a CellTiter-Glo® reagent is added to each well of the well plate and mixed for 2 minutes on a shaker to promote cell lysis. The Perkin Elmer Envision 2104 Multilabel Reader is used to read values and the values are recorded.
5) Experiment Data Acquisition and Processing
The acquired experiment data is analyzed and processed by using excel software, and GraphPad Prism 5 software is used for curve fitting analysis.
Background: In ATP-based viability assays light output follows the ATP content of the culture.

In series [2] the test system is SKOV3 cells. Kind of series: Cytotoxicity in SKOV3 cells (CellTiter 96 AQueous One Solution), Embodiment 9. Conditions: Homo sapiens, SK-OV-3; SKOV3, 96 hours. The series is classed as cell-based.
Protocol: 2) adjusting the cell density to 2.22×10^4/mL with a growth medium;
3) planting 90 μL/well of cell suspension into the 96-well plate, herein the number of cells per well in the plate is 2000;
4) placing the planted cell plate in the incubator at 37 DEG C. and incubating overnight;
5) performing 3.16-fold gradient dilution on the compound at 9 concentration points;
7) placing the cell culture plate in the incubator and continuously incubating for 96 hours;
8) placing the CellTiter 96® AQueous One Solution reagent at the room temperature and thawing for 90 minutes or thawing in a water bath at 37 DEG C., and placing at the room temperature and equilibrating for 30 minutes;
9) adding 20 μL/well of the CellTiter 96® AQueous One Solution reagent to the cell culture plate;
10) placing the cell culture plate in the incubator at 37 DEG C. and continuously incubating for 3 hours;
11) using a microplate reader to read a OD490 value of each well in the cell plate; and 12) data processing and analysis.
GraphPad Prism 5.0 software is used to process data graphically. In order to calculate the IC50, “S”-shaped nonlinear regression analysis is performed on the data to match an appropriate dosage-effect curve. A calculation formula of the survival rate is as follows, the IC50 may be automatically calculated in GraphPad Prism 5.0. […]
Series [3] can be described thus: TM value detection by solubility curve method (SYBR Green I). The series is classed as physicochemical. Conditions: extension fragment deformation+core short-sequence RNA nanoparticles; temperature at ½ RFUmax in 20 to 90 DEG C. taken as Tm. How it is done:
A solubility curve method is used to detect TM values of the 7 groups of the extension fragment deformation+core short-sequence RNA nanoparticles, and the samples are consistent with the potential samples.
(1) After the sample is diluted with ultrapure water, 5 μg of the diluted sample is mixed with 2 μL of SYBR Green I dye (diluted by 1:200), a final volume is 20 μL, and the dilution concentration is as follows:
(2) It is incubated for 30 min in the dark at a room temperature; and
(3) On-machine detection is performed, a program is set to start at 20 DEG C., the temperature rises per second from 0.1 DEG C. to 95 DEG C., and reading is performed every 5 s.
Due to the particularity of the RNA samples, a temperature corresponding to ½ RFUmax in a range of 20 to 90 DEG C. is used as a sample Tm value in this test.
A solubility curve method is used to detect TM values of the 7 groups of the extension fragment deformation+core short-sequence DNA nanoparticles, and the samples are consistent with the potential samples.

Series [4] can be described thus: Particle size measurement (DLS hydrodynamic size). The series is classed as physicochemical. The text has this:
(3) Particle Size Measurement
1. Preparing a potential sample (conventional-sequence DNA self-assembly product D-7) and putting into a sample pool, opening a sample pool cover of an instrument, and placing the instrument;
2. opening software, and clicking a menu, so a manual measurement parameter setting dialog box appears;
3. setting a software detection parameter; and then
4. clicking Ok to complete the settings, when a measurement dialog box appears, clicking Start to start, a DLS measurement value result of a hydrodynamic size of the self-assembly product D-7 is shown below in Table 40:
(3) Particle size measurement
(2) opening software, and clicking a menu, so a manual measurement parameter setting dialog box appears;
(3) setting a software detection parameter; and then

For `CC(=O)O[C@H]1C(=O)[C@@]2(C)[C@H]([C@H](OC(=O)c3ccccc3)[C@]3(O)C[C@H](OC(=O)[C@H](O)[C@@H](NC(=O)c4ccccc4)c4ccccc4)C(C)=C1C3(C)C)[C@]1(OC(C)=O)CO[C@@H]1C[C@@H]2O` [Paclitaxel, paclitaxel], the “inhibition rates of the drugs to the cells” value in series [1] (drug concentration is 10 μM) is 23.77%. In addition, the “cell survival rate (%)” value in series [1] (treatment time 72 h, 200 nM of each sample per well (method)) stood at 56.74%. The IC50 (usually the midpoint of a concentration-inhibition curve) in series [2] was less than 1 nM.

B1: R-20: extension fragment deformation+core short-sequence RNA nanoparticles, strands SEQ ID NO: 135-137, a-strand 3′-biotin, 2′F (nucleic acid)
chain 1: GCGGCGAGCGGCGACGAGCGUUGCGGCCGGAGGCCGG
chain 2: CCGGCCUCCGGCCGCUUCGCCGCCAGCCGCC
chain 3: GGCGGCAGGCGGCCAUAGCCGUCGCCGCUCGCCGC
modifications: RNA nanoparticle strands, 2'-fluoro modified, a-strand 3'-biotin, positions not given here
For the molecule B1, in series [3], the TM value was found to be 59.5 °C. Further, the “Mean particle size (nm)” value in series [4] amounted to 7.110 nm.
